21 compounds from ChEMBL document CHEMBL4387733, “Design, synthesis and biological evaluation of indane derived GPR40 agoPAMs” (Bioorg Med Chem Lett, 2019) can be followed below.

By Cmax is commonly meant the peak of the concentration-time curve. As a reminder, the half-life is the time needed for the level to fall by half in the phase considered. As a reminder, the inhibition in vivo is the share of the control response that was lost under treatment. For orientation: EC50 means the concentration that produces a half-maximal response. Broadly, the bioavailability is dose-corrected exposure relative to a reference, in per cent. As a reminder, the solubility is the dissolved amount per volume that the medium holds.

Converted amounts (≈) assume the structure as drawn. The source made the active and inactive calls.

Data set [1] in a line: Drug level in Wistar Han rat assessed as unbound fraction at 1 mg/kg, iv or 2 mg/kg, po. Type of data set: ADME, organism-based. As to conditions: in vivo.
Data set [2] addresses T1, Free fatty acid receptor 1 (Homo sapiens, UniProt O14842). The data set is described as follows: Positive allosteric modulation of recombinant human GPR40 expressed in HEK293 cells assessed as increase in [3H]-myo-inositol phosphate accumulation measured after 60 mins in presence of 100% human serum by microbeta counting method relative to control. In kind it is functional, cell-based.

Data set [3] can be described thus: Total drug level in Wistar Han rat plasma at 1 mg/kg, iv or 2 mg/kg, po measured at 3 hrs. In kind it is ADME, organism-based.
The nature of data set [4]: Cmax in Wistar Han rat at 1 mg/kg, iv or 2 mg/kg, po. Type of data set: ADME, organism-based. As to conditions: in vivo.
A short description of data set [5]: Protein binding in human plasma assessed as unbound fraction level. In kind it is ADME, cell-free.
Data set [6] has as its target T1, Free fatty acid receptor 1. Briefly: Positive allosteric modulation of recombinant human GPR40 expressed in HEK293 cells assessed as increase in [3H]-myo-inositol phosphate accumulation measured after 60 mins in absence of human serum by microbeta counting method relative to control. In kind it is functional, cell-based. Also noted: concentration or dose not given beside the values.

Data set [7] in a line: Volume of distribution in Wistar Han rat at 1 mg/kg, iv or 2 mg/kg, po. Type of data set: ADME, organism-based. The note with it: in vivo.
The nature of data set [8]: Half-life in Wistar Han rat at 1 mg/kg, iv or 2 mg/kg, po. Type of data set: ADME, organism-based. The note with it: in vivo.
Data set [9] deals with Rattus norvegicus. The data set is described as follows: Hypoglycemic activity in Sprague-Dawley rat assessed as reduction in blood glucose AUC at 3 mg/kg, ip measured after 3 hrs by IPGTT relative to control. Type of data set: functional.
Data set [10] deals with T1, Free fatty acid receptor 1. Briefly: Positive allosteric modulation of recombinant human GPR40 expressed in HEK293 cells assessed as increase in [3H]-myo-inositol phosphate accumulation measured after 60 mins in presence of 100% human serum by microbeta counting method. Type of data set: functional, cell-based.
The nature of data set [11]: Oral bioavailability in Wistar Han rat at 2 mg/kg. The note with it: in vivo. Type of data set: ADME, organism-based.
Data set [12] deals with T1, Free fatty acid receptor 1. Briefly: Positive allosteric modulation of recombinant human GPR40 expressed in HEK293 cells assessed as increase in [3H]-myo-inositol phosphate accumulation measured after 60 mins in absence of human serum by microbeta counting method. Type of data set: functional, cell-based.
Data set [13] can be described thus: Clearance in Wistar Han rat at 1 mg/kg, iv or 2 mg/kg, po. Type of data set: ADME, organism-based. As to conditions: in vivo.
Data set [14] in a line: Unbound drug level in Wistar Han rat plasma at 1 mg/kg, iv or 2 mg/kg, po measured at 3 hrs. In kind it is ADME, organism-based. The note with it: in vivo.
Data set [15] can be described thus: Dose normalized AUC in Wistar Han rat at 2 mg/kg, po. As to conditions: in vivo. In kind it is ADME, organism-based.
In data set [16] the test system is Rattus norvegicus. The data set is described as follows: Hypoglycemic activity in Sprague-Dawley rat assessed as reduction in blood glucose AUC at 0.3 mg/kg, po pretreated for 1 hr followed by glucose challenge by OGTT relative to control. Type of data set: functional.
The target of data set [17] is T1, Free fatty acid receptor 1. Briefly: Agonist activity at GPR40 (unknown origin) assessed as […] in IP1 accumulation. Type of data set: functional.
Data set [18] has as its system Rattus norvegicus. The data set is described as follows: Hypoglycemic activity in Sprague-Dawley rat assessed as reduction in blood glucose AUC at 10 mg/kg, po pretreated for 1 hr followed by glucose challenge by OGTT relative to control. Type of data set: functional. Also noted: scale not given: the % may be the effect or the level left.
Data set [19] in a line: Solubility of the compound in FASSIF. In kind it is physicochemical.
Data set [20] in a line: Drug metabolism in pH 7.4 potassium phosphate buffer assessed as TAK-875 formation at 10 uM measured after 5 hrs.
A short description of data set [21]: Stability of the compound in pH 7.4 potassium phosphate buffer at 10 uM measured after 5 hrs. In kind it is physicochemical. As to conditions: pH 7.4, 5 h.

T1 sequence (O14842 whole entry): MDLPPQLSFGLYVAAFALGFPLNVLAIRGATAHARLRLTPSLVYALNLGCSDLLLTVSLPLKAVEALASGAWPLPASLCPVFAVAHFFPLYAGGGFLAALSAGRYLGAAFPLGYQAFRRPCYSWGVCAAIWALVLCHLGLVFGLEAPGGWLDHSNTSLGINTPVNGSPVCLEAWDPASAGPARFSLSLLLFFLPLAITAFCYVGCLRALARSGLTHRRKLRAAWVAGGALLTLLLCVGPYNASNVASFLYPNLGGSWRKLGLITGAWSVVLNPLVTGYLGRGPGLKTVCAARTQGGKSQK

Take `COc1cc(-c2ccc3c(c2)CC[C@H]3Oc2cccc([C@H](C3CC3)[C@H](C)C(=O)O)c2)c(F)cn1`: the Fu in [1] and in data set [5] was 0.03% each time. For the same compound, the Activity in data set [2] was determined as 446%; in data set [6] it was 472%. This compound also registered a concentration at 3 h in [3] of 1900 nM. Also, in data set [4], the peak level (Cmax) was 10700 nM. The compound also gave a Vd in data set [7] of 0.18 L/kg. In data set [8], this compound showed a half-life of 3.9 h. Further, the inhibition in vivo at 3 mg/kg in the data set on Rattus norvegicus [9] was 94%. For the same compound, the EC50 in data set [10] is 867 nM; in data set [12], 3 nM. Besides, in data set [10], the fEC50 came out at 0.26 nM. In data set [11], this compound yielded a bioavailability of 54%. Moreover, in [13], the clearance was 0.6 mL/min/kg. Further, in [14], the “Cp(f)” value was determined as 0.57 nM. Further, the AUC/dose in [15] stood at 99.9 µM·h.
In the case of `COc1ccc(F)c(-c2ccc3c(c2C2=CCCC2(C)C)CC[C@H]3Oc2cccc([C@H](C3CC3)[C@H](C)C(=O)O)c2)c1`, the values for the Activity in data set [2] and in data set [6] were 110% and 101%, respectively. The EC50 in data set [10] worked out at 5450 nM; in data set [12], 326 nM. The fEC50 in data set [10] stood at 2.3 nM.
In the case of `CC#C[C@@H](CC(=O)O)c1ccc(OCc2cccc(-c3ccc(C(F)(F)F)cc3)c2)cc1`, in the data set on Rattus norvegicus [16], the result was Active.
Regarding `COc1cc(-c2ccc3c(c2)CC[C@H]3Oc2cccc([C@H](C3CC3)[C@H](C)C(=O)O)c2)ccn1`, the Activity was 372% in [2] and 448% in data set [6]. For the same compound, in [5], the Fu is listed as 0.04%. In addition, the EC50 worked out at 3550 nM in data set [10] and 11 nM in data set [12]. For the same compound, in data set [10], the fEC50 was determined as 3.2 nM.
In the case of `COc1ccc(F)c(-c2cc(F)c3c(c2)CC[C@H]3Oc2cccc([C@@H](CC(=O)O)C3CC3)c2)c1`, in [6], the Activity is 224%. Also, the EC50 in data set [10] was > 10000 nM.
Turning to `COc1ccc(F)c(-c2cnc3c(c2)CC[C@H]3Oc2cccc([C@H](C3CC3)[C@H](C)C(=O)O)c2)c1`, the figures for the Activity in [2] and in [6] were 107% and 159%, respectively. In addition, the Fu in data set [5] was 0.16%. In addition, the EC50 in data set [10] was found to be 4900 nM. Besides, in data set [10], the fEC50 was 7.8 nM.
In the case of `COc1ccc(F)c(-c2ccc(COc3cccc([C@@H](CC(=O)O)C4CC4)c3)cc2)c1`, the Fu in data set [5] is on record as 0.05%. In data set [10], the concentration for a half-maximal effect (EC50) is > 10000 nM.
Take `COc1cc(-c2ccc3c(c2)CC[C@H]3Oc2cccc([C@H](C3CC3)[C@H](C)C(=O)O)c2F)c(F)cn1`: the Fu in data set [1] and in [5] was 0.05% throughout. Also, the values for the Activity in data set [2] and in [6] were 318% and 342%, respectively. Also, the concentration at 3 h in data set [3] was 600 nM. The highest level in data set [4] (Cmax) was 6300 nM. In data set [7], this compound came in with a Vd of 0.78 L/kg. For the same compound, the half-life in data set [8] is 5.1 h. Moreover, in the data set on Rattus norvegicus [9], the inhibition in vivo at 3 mg/kg was 49%. The EC50 in data set [10] was determined as 245 nM; in data set [12] it was 2 nM. Also, in data set [10], the fEC50 worked out at 0.08 nM. For the same compound, the bioavailability in data set [11] was > 100%. The compound further displayed a clearance in data set [13] of 2.9 mL/min/kg. Moreover, the “Cp(f)” value in data set [14] is given as 0.3 nM. Also, in data set [15], the AUC/dose is 36.2 µM·h.
For `COc1ccc(F)c(-c2cc3c(cn2)[C@H](Oc2cccc([C@H](C4CC4)[C@H](C)C(=O)O)c2)CC3)c1`, the figures for the Activity in data set [2] and in data set [6] were 221% and 457%, respectively. Moreover, the Fu in data set [5] turned out to be 0.13%. For the same compound, the fold change (FC) in data set [17] was < 100. Also, the EC50 in [10] was 3320 nM. Also, the fEC50 in data set [10] stood at 4.3 nM.
Regarding `COc1ccc(F)c(-c2ccc3c(c2)CC[C@H]3Oc2cccc([C@H](C3CC3)[C@@H](C)C(=O)O)c2)c1`, the Activity in data set [6] came to 377%. The values for the EC50 in data set [10] and in data set [12] were > 10000 nM and 59 nM, respectively.
In the same order, the values of `COc1ccc(F)c(-c2ccc3c(n2)CC[C@H]3Oc2cccc([C@H](C3CC3)[C@H](C)C(=O)O)c2)c1` are 366%, > 10000 nM and 151 nM.
For the compound `COc1ccc(F)c(-c2ccc3c(c2)OC[C@@H]3Oc2cccc([C@@H](CC(=O)O)C3CC3)c2)c1`, the Activity in data set [2] was 138%; in data set [6], 291%. The Fu in data set [5] was found to be 0.9%. Also, the concentration giving a half-maximal response (EC50) was 7350 nM in data set [10] and 16 nM in data set [12]. Moreover, the fEC50 in data set [10] is 66 nM.
Regarding `COc1ccc(F)c(-c2ccc3c(c2)CC[C@H]3Oc2cccc([C@@H](CC(=O)O)C3CC3)c2)c1`, in data set [2], the Activity turned out to be 131%. In data set [6], the Activity was 352%. In data set [10], the EC50 came out at 5950 nM and the fEC50 was determined as 3.7 nM.
For `O=C1NC(=O)C(C2CCOc3cc(Oc4ccc(C(F)(F)F)cc4Cl)ccc32)S1` (centres undefined), the Activity in the data set on Rattus norvegicus [18] is reported as 97%.
Compound `COc1ccc(F)c(-c2ccc([C@@H]3CCc4ccc([C@H](C5CC5)[C@H](C)C(=O)O)cc4O3)cc2)c1` gave a solubility in data set [19] of 125 µM (≈ 57.6 µg/mL).
Consider `Cc1cc(OCCCS(C)(=O)=O)cc(C)c1-c1cccc(COc2ccc3c(c2)OC[C@H]3CC(=O)O)c1`, for which the result with Rattus norvegicus [16] was Active.
As to `COc1ccc(F)c(-c2ccc3c(c2)CC[C@H]3Oc2cccc([C@H](C3CC3)[C@H](C)C(=O)O)c2F)c1`, the Fu in data set [1] and in data set [5] was 0.02% in each case. For the same compound, the Activity in data set [2] is 264%; in data set [6], 395%. The compound also returned a concentration at 3 h in [3] of 2500 nM. The same compound came in with a Cmax in data set [4] of 2900 nM. This compound had a Vd in data set [7] of 0.85 L/kg. In data set [8], this compound showed a half-life of 3.1 h. In addition, the inhibition in vivo at 3 mg/kg with Rattus norvegicus [9] was 10%. The EC50 in data set [10] turned out to be 127 nM; in [12] it was 3 nM. Besides, the fEC50 in [10] stood at 0.03 nM. In data set [11], the bioavailability is > 100%. The same compound returned a clearance in data set [13] of 2.8 mL/min/kg. Further, in data set [14], the “Cp(f)” value worked out at 0.5 nM. In addition, the AUC/dose in data set [15] amounted to 9.3 µM·h.
On to `COc1ccc(F)c(-c2ccc3c(c2)CC[C@@H]3Oc2cccc([C@H](C3CC3)[C@H](C)C(=O)O)c2)c1`, for which the Activity worked out at 84% in [2] and 339% in data set [6]. Besides, the values for the EC50 in [10] and in [12] were 5490 nM and 60 nM, respectively. In addition, in data set [10], the fEC50 was found to be 0.6 nM.
As for `COc1ccc(F)c(-c2cc3c(cc2F)[C@H](Oc2cccc([C@H](C4CC4)[C@H](C)C(=O)O)c2)CC3)c1`, the Activity in data set [6] is 224%. In addition, the values for the EC50 in [10] and in data set [12] were > 10000 nM and 155 nM, respectively.
For the compound `COc1ccc(F)c(-c2ccc3c(c2F)CC[C@H]3Oc2cccc([C@H](C3CC3)[C@H](C)C(=O)O)c2)c1`, the figures for the Activity in data set [2] and in [6] were 297% and 352%, respectively. The EC50 in data set [10] was 810 nM; in data set [12], 3.9 nM. In addition, in data set [10], the fEC50 is 0.32 nM.
Consider `Cc1cc(OCCCS(C)(=O)=O)cc(C)c1-c1cccc(COc2ccc3c(c2)OC[C@H]3CC(=O)OC2O[C@H](C(=O)O)[C@@H](O)[C@H](O)[C@H]2O)c1` (some centres undefined), for which the Drug metabolism result in data set [20] is given as “Metabolite detected”. Further, in data set [21], the Stability result was “Unstable”.
